Experimental findings from ChEMBL document CHEMBL1201862, “PubChem BioAssay data set” (2004) are described below.

Assay [1] in a line: NIH-3T3 fibroblast cytotoxicity, dose response, cytotoxicity control, cell-based, fluorescence, Alamar Blue, secondary assay (AID 2327).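 Also: NIH-3T3 mouse fibroblasts cultured with fluconazole at 8 µg/mL.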 Type of assay: functional. In general terms: Resazurin is reduced to fluorescent resorufin, in cell work by metabolically active cells.
In assay [2] the target is T1, Histone-lysine N-methyltransferase NSD2 (Homo sapiens, UniProt O96028).
T1 sequence (O96028 whole entry): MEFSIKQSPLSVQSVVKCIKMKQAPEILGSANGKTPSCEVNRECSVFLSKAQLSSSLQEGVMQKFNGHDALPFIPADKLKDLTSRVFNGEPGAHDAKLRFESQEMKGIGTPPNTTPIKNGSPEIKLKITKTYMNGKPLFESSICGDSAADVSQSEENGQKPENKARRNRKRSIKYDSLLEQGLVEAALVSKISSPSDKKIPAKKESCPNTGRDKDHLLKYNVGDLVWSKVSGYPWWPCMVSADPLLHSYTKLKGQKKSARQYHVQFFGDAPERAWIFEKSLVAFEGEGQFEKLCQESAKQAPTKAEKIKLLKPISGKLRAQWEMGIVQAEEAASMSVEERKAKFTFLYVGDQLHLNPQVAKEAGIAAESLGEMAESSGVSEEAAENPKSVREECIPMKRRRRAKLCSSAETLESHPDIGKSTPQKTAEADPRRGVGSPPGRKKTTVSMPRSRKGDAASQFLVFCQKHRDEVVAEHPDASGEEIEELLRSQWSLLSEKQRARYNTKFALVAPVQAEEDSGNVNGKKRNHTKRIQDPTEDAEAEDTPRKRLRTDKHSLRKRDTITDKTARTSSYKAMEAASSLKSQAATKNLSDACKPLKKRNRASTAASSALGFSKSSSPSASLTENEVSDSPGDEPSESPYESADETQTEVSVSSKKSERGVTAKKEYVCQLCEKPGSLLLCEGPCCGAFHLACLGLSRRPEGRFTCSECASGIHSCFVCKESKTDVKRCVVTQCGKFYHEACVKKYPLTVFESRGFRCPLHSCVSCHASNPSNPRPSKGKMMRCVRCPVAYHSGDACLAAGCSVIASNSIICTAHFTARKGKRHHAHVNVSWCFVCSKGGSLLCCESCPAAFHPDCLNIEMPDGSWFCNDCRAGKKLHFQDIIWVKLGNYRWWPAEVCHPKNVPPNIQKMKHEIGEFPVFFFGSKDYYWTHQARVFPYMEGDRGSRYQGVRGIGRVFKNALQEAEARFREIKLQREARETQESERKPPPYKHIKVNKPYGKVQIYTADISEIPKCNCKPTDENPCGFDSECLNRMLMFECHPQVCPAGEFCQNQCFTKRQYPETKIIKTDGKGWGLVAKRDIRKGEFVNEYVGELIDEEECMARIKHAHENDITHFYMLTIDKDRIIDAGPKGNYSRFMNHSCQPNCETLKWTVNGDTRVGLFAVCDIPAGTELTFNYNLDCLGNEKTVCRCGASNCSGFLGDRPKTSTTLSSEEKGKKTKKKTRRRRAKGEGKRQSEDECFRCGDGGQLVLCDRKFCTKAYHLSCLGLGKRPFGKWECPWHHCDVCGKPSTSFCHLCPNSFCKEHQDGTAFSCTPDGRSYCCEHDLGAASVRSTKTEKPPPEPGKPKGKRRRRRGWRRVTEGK
Type of assay: biochemical.

Assay [3] in a line: inhibitors of SNCA 5'UTR-driven reporter translation, confirmation, H4 neuroglioma cells, luminescence (AID 1988). The class given is functional, cell-based.
The test system of assay [4] is HeLa. Description: Cytotoxicity counterscreen assay for transcriptional activators of heat shock protein 70 (Hsp70). [Related pubchem assays: 1203, 1252 ]. The conditions noted are these: Homo sapiens. Type of assay: functional. In general terms: A counterscreen serves to expose hits that act by an unwanted route or on another target.
Another assay deals with Streptococcus. Description: Group A Streptococcus viability loss, dose response, counter-screen for streptokinase expression inhibitor project, luminescence, BacTiterGlo (AID 1915).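 Also: potency for reduction of bacterial viability or growth.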 The class given is functional, organism-based.
The nature of assay [5]: cytotoxicity in HEK-293T cells, dose response, cytotoxicity control for TCR NF-kB inhibitor project, luminescence, T-cell screen hits (AID 489026).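 Also: cells exposed to compound about 14 hours before the viability readout.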 Type of assay: functional, cell-based.
The target of assay [6] is Intestinal-type alkaline phosphatase (Homo sapiens, UniProt P09923). Description: human intestinal alkaline phosphatase activators, dose response, biochemical, luminescence, uHTS hits (AID 463120). Type of assay: functional.
Assay [7] concerns the target High affinity nerve growth factor receptor (Homo sapiens, UniProt P04629). The class given is functional.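 Also: NTRK1 tested as one member of a kinome-wide profiling panel.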
In assay [8] the target is Receptor-type tyrosine-protein kinase FLT3 (Homo sapiens, UniProt P36888). Type of assay: functional.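 Also: FLT3 was tested as one member of a kinome-wide kinase panel.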
For another assay, the target named is Aurora kinase B (Homo sapiens, UniProt Q96GD4). The class given is functional.
Assay [9] concerns the target Serine/threonine-protein kinase N2 (Homo sapiens, UniProt Q16513). Type of assay: functional.
The target in assay [10] is Dual specificity tyrosine-phosphorylation-regulated kinase 3 (Homo sapiens, UniProt O43781). Type of assay: functional.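 Also: measured as one member of a broad kinase panel.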
Assay [11] concerns the target Tyrosine-protein kinase Fyn (Homo sapiens, UniProt P06241). Type of assay: functional.
Assay [12] has as its target Serine/threonine-protein kinase Nek4 (Homo sapiens, UniProt P51957). The class given is functional.
Assay [13] deals with Inhibitor of nuclear factor kappa-B kinase subunit epsilon (Homo sapiens, UniProt Q14164). Description: Navigating the Kinome. Panel member name: IKBKE. The class given is functional.
The target of assay [14] is Protein kinase C zeta type (Homo sapiens, UniProt Q05513). Type of assay: functional.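 Also: measured as one member of a broad kinase profiling panel.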
The target of assay [15] is Serine/threonine-protein kinase 3 (Homo sapiens, UniProt Q13188). The class given is functional.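 Also: measured as one member of a kinome-wide kinase panel.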
For assay [16], the target named is Tyrosine-protein kinase ABL1 (Homo sapiens, UniProt P00519). The class given is functional.
Assay [17] has as its target Megakaryocyte-associated tyrosine-protein kinase (Homo sapiens, UniProt P42679). Type of assay: functional.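 Also: affinity measured as one member of a kinase panel (Navigating the Kinome) against MATK.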
Assay [18] deals with BDNF/NT-3 growth factors receptor (Homo sapiens, UniProt Q16620). The class given is functional.
Assay [19] has as its target Vascular endothelial growth factor receptor 3 (Homo sapiens, UniProt P35916). Type of assay: functional.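 Also: value from a kinome-wide profiling panel, with FLT4 as the panel member.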
In a further assay the target is Ephrin type-A receptor 2 (Homo sapiens, UniProt P29317). Type of assay: functional.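 Also: EPHA2 tested as one member of a kinome-wide kinase panel.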
The target in assay [20] is Serine/threonine-protein kinase PAK 4 (Homo sapiens, UniProt O96013). The class given is functional.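 Also: value obtained within a kinome profiling panel in which PAK4 was one of the panel members.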
For a further assay, the target named is Focal adhesion kinase 1 (Homo sapiens, UniProt Q05397). Type of assay: functional.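 Also: measured as one member of a kinome panel.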
Assay [21] deals with Induced myeloid leukemia cell differentiation protein Mcl-1 (Homo sapiens, UniProt Q07820). Type of assay: functional.
Assay [22] concerns HeLa. Kind of assay: HeLa cell cytotoxicity, dose response, cytotoxicity control, 24 h, cherry-picked samples (AID 504726).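 Also: potency for cytotoxicity as loss of luminescence signal.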 Type of assay: functional, cell-based. To be noted: Homo sapiens.
A further assay concerns the target ORF 73 (Human herpesvirus 8, UniProt O40947). Description: inhibitors of C-LANA binding to LBS DNA, dose response, biochemical, fluorescence polarization, cherry-picked samples (AID 504725).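 Also: fluorescence polarization of a labeled DNA duplex reporting LANA DNA binding; potency is for inhibitors that block LANA binding to the DNA.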 Also on record: species or system Human gammaherpesvirus 8.

Calls of active or inactive are those of the source.
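For CC50 in this document: cells exposed to compound for 16 hours before readout.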

Dual specificity tyrosine-phosphorylation-regulated kinase 3, sequence (O43781 whole entry): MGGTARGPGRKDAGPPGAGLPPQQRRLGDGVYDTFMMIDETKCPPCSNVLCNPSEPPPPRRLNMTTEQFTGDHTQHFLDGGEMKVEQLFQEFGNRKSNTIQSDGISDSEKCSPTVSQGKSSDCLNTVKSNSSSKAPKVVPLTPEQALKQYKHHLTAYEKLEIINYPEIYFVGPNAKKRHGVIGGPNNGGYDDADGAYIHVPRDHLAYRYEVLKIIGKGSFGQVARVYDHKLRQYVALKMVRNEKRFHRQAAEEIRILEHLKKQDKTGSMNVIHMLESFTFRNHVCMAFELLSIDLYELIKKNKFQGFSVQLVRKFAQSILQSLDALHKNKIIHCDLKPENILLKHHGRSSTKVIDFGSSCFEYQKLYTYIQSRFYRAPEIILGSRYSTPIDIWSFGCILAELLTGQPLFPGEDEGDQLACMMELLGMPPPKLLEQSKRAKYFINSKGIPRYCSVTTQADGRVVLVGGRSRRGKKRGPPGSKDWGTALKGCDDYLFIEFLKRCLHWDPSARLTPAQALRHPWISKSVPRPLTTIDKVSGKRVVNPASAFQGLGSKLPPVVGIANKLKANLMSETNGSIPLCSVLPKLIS
ORF 73, sequence (O40947 whole entry): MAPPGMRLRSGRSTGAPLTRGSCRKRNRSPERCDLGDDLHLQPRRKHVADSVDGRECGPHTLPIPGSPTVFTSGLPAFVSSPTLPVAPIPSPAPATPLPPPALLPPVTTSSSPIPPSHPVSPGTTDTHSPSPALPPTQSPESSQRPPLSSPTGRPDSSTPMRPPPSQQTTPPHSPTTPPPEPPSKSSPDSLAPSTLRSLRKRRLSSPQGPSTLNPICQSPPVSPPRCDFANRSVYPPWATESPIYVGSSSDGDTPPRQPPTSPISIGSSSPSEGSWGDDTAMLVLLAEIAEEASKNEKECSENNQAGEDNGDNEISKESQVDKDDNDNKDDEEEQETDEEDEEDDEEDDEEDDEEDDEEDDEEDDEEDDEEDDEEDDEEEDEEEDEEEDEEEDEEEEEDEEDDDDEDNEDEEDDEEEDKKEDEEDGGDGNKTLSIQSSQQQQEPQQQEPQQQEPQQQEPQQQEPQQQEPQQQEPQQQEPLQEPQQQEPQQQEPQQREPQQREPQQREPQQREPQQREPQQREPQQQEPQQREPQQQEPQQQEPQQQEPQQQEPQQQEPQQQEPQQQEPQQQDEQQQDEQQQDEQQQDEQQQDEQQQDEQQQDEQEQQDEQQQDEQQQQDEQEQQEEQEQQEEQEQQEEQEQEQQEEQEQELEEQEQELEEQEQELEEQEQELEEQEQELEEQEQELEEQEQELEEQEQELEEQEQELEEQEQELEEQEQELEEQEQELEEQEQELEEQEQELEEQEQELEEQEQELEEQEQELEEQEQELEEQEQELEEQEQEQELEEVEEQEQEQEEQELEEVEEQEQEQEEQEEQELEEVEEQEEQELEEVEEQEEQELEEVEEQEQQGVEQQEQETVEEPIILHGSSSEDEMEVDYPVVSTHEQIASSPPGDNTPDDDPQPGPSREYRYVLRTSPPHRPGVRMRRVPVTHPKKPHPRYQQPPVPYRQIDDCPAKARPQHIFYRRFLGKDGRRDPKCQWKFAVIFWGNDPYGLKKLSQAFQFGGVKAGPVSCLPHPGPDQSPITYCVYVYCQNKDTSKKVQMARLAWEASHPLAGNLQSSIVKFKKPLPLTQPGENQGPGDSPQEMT
Vascular endothelial growth factor receptor 3, sequence (P35916 whole entry): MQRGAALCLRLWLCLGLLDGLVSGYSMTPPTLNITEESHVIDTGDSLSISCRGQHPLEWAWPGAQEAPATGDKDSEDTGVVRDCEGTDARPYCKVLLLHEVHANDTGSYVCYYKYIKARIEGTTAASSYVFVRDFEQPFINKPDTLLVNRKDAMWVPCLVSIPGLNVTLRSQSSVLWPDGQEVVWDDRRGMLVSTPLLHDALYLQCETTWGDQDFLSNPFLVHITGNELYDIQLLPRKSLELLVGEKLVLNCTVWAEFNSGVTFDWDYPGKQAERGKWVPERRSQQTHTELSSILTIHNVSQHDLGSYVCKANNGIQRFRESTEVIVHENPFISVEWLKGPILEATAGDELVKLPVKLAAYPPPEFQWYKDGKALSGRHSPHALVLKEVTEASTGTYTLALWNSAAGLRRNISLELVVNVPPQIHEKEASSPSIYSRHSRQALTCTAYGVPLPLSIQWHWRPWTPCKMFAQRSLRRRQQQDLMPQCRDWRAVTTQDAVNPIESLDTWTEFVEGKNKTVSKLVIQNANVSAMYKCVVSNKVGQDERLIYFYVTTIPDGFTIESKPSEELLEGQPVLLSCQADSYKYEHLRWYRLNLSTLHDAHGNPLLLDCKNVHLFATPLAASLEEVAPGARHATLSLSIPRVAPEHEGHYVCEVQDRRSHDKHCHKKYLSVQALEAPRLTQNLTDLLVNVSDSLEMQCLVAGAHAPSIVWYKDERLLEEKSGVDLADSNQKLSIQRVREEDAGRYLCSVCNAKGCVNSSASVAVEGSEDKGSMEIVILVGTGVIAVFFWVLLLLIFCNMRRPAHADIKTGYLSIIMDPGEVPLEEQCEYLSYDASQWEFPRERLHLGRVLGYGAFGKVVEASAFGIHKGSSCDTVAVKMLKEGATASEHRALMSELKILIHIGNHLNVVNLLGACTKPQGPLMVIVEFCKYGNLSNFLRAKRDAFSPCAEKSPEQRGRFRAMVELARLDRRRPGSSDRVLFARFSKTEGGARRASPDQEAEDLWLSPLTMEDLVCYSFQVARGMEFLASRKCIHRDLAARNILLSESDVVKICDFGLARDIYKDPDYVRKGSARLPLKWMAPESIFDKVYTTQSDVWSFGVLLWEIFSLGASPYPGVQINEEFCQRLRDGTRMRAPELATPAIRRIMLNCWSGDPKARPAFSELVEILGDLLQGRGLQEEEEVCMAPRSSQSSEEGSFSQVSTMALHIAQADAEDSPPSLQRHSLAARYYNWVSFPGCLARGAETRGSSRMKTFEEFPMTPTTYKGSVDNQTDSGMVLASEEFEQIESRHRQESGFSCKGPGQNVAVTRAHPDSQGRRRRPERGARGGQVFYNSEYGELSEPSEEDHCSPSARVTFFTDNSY
Receptor-type tyrosine-protein kinase FLT3, sequence (P36888 whole entry): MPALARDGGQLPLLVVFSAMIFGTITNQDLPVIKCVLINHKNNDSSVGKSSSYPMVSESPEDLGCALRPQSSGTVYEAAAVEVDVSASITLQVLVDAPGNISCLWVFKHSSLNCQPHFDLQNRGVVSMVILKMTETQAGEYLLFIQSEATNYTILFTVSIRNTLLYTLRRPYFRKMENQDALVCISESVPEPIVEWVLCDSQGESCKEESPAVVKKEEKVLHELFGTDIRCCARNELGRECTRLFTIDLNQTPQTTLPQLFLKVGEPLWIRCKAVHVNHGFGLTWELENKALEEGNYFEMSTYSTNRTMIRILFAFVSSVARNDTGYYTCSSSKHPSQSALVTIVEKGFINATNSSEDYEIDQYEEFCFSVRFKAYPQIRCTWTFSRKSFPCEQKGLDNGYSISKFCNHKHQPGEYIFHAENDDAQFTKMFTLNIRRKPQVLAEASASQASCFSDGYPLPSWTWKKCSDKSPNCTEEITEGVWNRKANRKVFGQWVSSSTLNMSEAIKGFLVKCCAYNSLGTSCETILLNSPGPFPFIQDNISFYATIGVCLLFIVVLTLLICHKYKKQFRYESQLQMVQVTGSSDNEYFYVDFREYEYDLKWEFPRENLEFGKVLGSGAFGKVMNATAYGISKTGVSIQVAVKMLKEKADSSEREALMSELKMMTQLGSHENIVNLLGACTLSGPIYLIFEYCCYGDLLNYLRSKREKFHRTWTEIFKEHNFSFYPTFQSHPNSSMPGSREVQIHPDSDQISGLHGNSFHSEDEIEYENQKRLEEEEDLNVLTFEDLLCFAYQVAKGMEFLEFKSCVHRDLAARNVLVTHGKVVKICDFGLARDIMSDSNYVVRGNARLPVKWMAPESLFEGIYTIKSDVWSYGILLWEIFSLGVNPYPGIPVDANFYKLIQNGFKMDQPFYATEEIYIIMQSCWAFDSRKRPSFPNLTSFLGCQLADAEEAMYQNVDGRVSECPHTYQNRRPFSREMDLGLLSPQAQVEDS
Induced myeloid leukemia cell differentiation protein Mcl-1, sequence (Q07820 whole entry): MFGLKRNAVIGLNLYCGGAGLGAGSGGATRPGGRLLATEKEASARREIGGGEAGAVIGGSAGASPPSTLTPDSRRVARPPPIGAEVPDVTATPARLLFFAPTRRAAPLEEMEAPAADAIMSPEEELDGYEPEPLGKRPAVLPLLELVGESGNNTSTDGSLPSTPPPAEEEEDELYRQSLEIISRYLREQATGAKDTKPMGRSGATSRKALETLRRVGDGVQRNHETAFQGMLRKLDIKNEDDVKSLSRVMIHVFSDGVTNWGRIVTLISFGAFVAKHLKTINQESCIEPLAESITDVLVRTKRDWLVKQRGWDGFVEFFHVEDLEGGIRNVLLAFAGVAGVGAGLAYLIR
Serine/threonine-protein kinase PAK 4, sequence (O96013 whole entry): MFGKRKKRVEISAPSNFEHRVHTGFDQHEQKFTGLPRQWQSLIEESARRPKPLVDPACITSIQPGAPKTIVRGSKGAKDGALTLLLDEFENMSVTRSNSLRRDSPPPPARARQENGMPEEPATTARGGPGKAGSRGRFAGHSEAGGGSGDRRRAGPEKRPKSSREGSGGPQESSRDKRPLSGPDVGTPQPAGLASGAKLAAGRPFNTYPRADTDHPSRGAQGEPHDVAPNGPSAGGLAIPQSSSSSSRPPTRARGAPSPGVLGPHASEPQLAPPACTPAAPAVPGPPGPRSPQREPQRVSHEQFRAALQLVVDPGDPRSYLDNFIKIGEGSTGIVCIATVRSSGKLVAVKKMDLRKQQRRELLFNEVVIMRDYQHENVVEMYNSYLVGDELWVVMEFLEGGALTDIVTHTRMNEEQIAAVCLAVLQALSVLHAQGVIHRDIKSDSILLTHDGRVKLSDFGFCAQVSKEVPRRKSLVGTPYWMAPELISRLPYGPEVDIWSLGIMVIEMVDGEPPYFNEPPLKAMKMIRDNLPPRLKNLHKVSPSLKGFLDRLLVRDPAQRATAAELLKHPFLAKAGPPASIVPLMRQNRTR

Take `CN(C)S(=O)(=O)Oc1cccc(C(=O)Nc2ccc(Cl)c(Cl)c2)c1`: the EC50 (commonly the concentration that produces a half-maximal response) in assay [1] is > 150 µM (inactive).

As for `Cc1ccc2[nH]c(/C(C#N)=C/c3ccc(O)c(O)c3)nc2c1`, the AC50 – broadly, the concentration at which the activity in the assay is half-maximal – in assay [2] is 4.37 µM (active).

Consider `COC(=O)C1CN(C#N)N(c2ccc(Cl)cc2)C12c1ccccc1-c1ccccc12` (configuration not stated), for which the concentration for a half-maximal effect (EC50) in [3] was 7.38 µM (active); with Streptococcus, 20.7 µM (active). Further, the cytotoxic concentration (CC50) (in general, the concentration that lowers cell viability or growth by half) with HeLa [4] is 3.02 µM (active). Moreover, the IC50 (as a rule, the midpoint of a concentration-inhibition curve) in assay [5] was 56.6 µM (inactive).

Consider `O=C(NN1C(=O)CSC1=S)C(=O)NN1C(=O)CSC1=S`, for which the concentration for a half-maximal effect (EC50) in assay [6] was 9.21 µM (active).

For `Nc1noc2cccc(-c3cccc(O)c3)c12`, the Ki (commonly a measure of affinity in units of concentration, obtained from inhibition or displacement) was > 2.51 µM (inactive) in [7]; 10 µM (active) in assay [8]; 3.98 µM (active) on Aurora kinase B; > 7.94 µM (inactive) in [9]; > 6.31 µM (inactive) in assay [10]; > 7.94 µM (inactive) in assay [11]. For the same compound, the Ki in assay [12] was > 6.31 µM (inactive); in [13] it was 39.8 µM (active); in [14], > 7.94 µM (inactive); in [15], 6.31 µM (active); in assay [16], > 1 µM (inactive); in [17] it was > 2 µM (inactive). In addition, the Ki is > 20 µM (inactive) in assay [18]; > 6.31 µM (inactive) in assay [19]; > 3.16 µM (inactive) on Ephrin type-A receptor 2; > 5.01 µM (inactive) in assay [20]; > 39.8 µM (inactive) at Focal adhesion kinase 1.

As for `O=C1NC(=S)S/C1=C\C=C\c1ccc([N+](=O)[O-])o1`, the IC50 in assay [21] is 1.92 µM (active). Also, the values for the AC50 with HeLa [22] and on ORF 73 were 12.5 µM (active) and 71.4 µM (active), respectively.
